Assay results published in patent publication US20210069295A1, “GALECTINS CONTROL MTOR IN RESPONSE TO ENDOMEMBRANE DAMAGE AND PROVIDE A MECHANISM AND TARGET FOR THE TREATMENT OF AUTOPHAGY-RELATED DISEASES” (STC. UNM, priority 2017, published 2021).
Peptide text beside a SMILES is read from it.

System: APEX2-Gal8
Test: APEX2-Gal8 proximity biotinylation LC/MS/MS proteomic analysis in HEK293T cells
Assay type: cell-based
Conditions: 100 μM GPN 1 h vs full medium
Experimental: HEK293T cells transfected with pJJiaDEST-APEX2 or pJJiaDEST-APEX2-Gal8 were incubated with 100 μM GPN (Cayman Chemicals) in full medium for 1 h (confluence of cells remained at 70-80%). Cells were next incubated in 500 μM biotin-phenol (AdipoGen) in full medium for the last 30 min of GPN incubation. A 1 min pulse with 1 mM H2O2 at room temperature was stopped with quenching buffer (10 mM sodium ascorbate, 10 mM sodium azide and 5 mM Trolox in Dulbecco's Phosphate Buffered Saline (DPBS)). All samples were washed twice with quenching buffer, and twice with DPBS.
For LC-MS/MS analysis, cell pellets were lysed in 500 μL ice-cold lysis buffer (6 M urea, 0.3 M Nacl, 1 mM EDTA, 1 mM EGTA, 10 mM sodium ascorbate, 10 mM sodium azide, 5 mM Trolox, 1% glycerol and 25 mm Tris/HCl [PH 7.5]) for 30 min by gentle pipetting. Lysates were clarified by centrifugation and protein concentrations determined as above. Streptavidin-coated magnetic beads (Pierce) were washed with lysis buffer. 3 mg of each sample was mixed with 100 μL of streptavidin bead. The suspensions were gently rotated at 4° C. for overnight to bind biotinylated proteins. The flowthrough after enrichment was removed and the beads were washed in sequence with 1 mL IP buffer (150 mM NaCl, 10 mM Tris-HCl pH8.0, 1 mM EDTA, 1 mM EGTA, 1% Triton X-100) twice; 1 mL 1M KCl; 1 mL of 50 mM Na2CO3; 1 mL 2M Urea in 20 mM 1Tris HCl pH8; 1 mL IP buffer. Biotinylated proteins were eluted, 5-10% of the sample processed for Western Blot and 90-95% of the sample processed for mass spectrometry.
Digested peptides were analyzed by LC-MS/MS on a Thermo Scientific Q Exactive Plus Orbitrap Mass spectrometer in conjunction Proxeon Easy-nLC II HPLC (Thermo Scientific) and Proxeon nanospray source. […]
Tandem mass spectra were extracted by Proteome Discoverer version 2.2. […] All MS/MS samples were analyzed using Sequest-HT (XCorr Only)(Thermo Fisher Scientific, San Jose, Calif., USA; in Proteome Discoverer 2.2.0.388). […] Precursor intensity was determined using Proteome Discoverer 2.2 using the Minor Feature detector with the default options. […]

NCC(=O)N[C@@H](Cc1ccccc1)C(=O)Nc1ccc2ccccc2c1 [GPN, glycyl-L-phenylalanine 2-naphththylamide] (HELM PEPTIDE1{G.F.[c1ccc2cc(N[*:1])ccc2c1]}$$$$V2.0)
> 100 fold: decrease in spectral counts of mTOR proximal to APEX2-Gal8 | increase in MS signal intensity of peptide precursor ions of LAMTOR1/p18, SLC38A9 and RagA/B | increase in spectral counts of SLC38A9 and RagA/B proximal to APEX2-Gal8
